Here are results for 10 compounds from patent publication US4363816A, “Tricyclic pyrroles, their compositions and their use” (BYK Gulden Lomberg Chemische Fabrik Gesellschaft mit …, priority 1981, dated 1982).

Read-outs that look alike come from different tables or passages of the source.

Data set [1] has as its system gastric secretion. The experiment in a line: Inhibition of gastric secretion in rats. It counts as in vivo. The conditions noted are these: 4 hours after administration of the antiulcerogenic ED50. The procedure: (§1) The effect of the compounds according to the invention on the formation, in rats, of gastric ulcers provoked by a pylorus ligature and 10 mg/kg of acetylsalicylic acid and on the inhibition of gastric secretion in rats is shown in the following table:
^(+) % inhibition of the gastric secretion (in %) 4 hours after
administration of the antiulcerogenic ED50
(§2) The antiulcerogenic action was tested in accordance with the method using the so-called Shay rat: Rats (female, 180 to 200 g, 4 animals per cage on a high grid) which had been fasted for 24 hours were subjected to ulcer provocation by pylorus ligature (under diethyl ether anaesthesia) and oral administration of 100 mg/10 ml/kg of acetylsalicyclic acid. The substances to be tested are administered orally (10 ml/kg) 1 hour before the pylorus ligature. The wound is closed by means of Michel clamps. 4 hours thereafter, the animals are killed under ether anaesthesia by atlas dislocation, and the stomach is removed. The stomach is opened longitudinally and fixed to a cork tile after the amount of gastric juice secreted (volume) has been determined, the number and size (=diameter) of ulcers present are determined with a stereomicroscope with 10-fold magnification. The product of the degree of severity (according to the following rating scale) and the number of ulcers serves as the individual ulcer index.

Data set [2] deals with gastric ulcers provoked by a pylorus ligature and acetylsalicylic acid. The experiment in a line: Antiulcerogenic action (protective action on the stomach), Shay rat: pylorus ligature plus oral acetylsalicylic acid. The data set is classed as in vivo, rats (female). The conditions noted are these: for ED50: Rattus norvegicus, po, read-out: Protective action on the stomach, ED50. The method, then: as §1
(§3) compared with the control group
(§4) TQ = therapeutic quotient LD50 /ED50
as §2
(§5) ulcer diameter 0.1-1.4 mm 1
(§6) The reduction in the average ulcer index of each treated group compared with that of the control group (=100%) serves as a measure of the antiulcerogenic effect. The ED50 designates the dose which reduces the average ulcer index by 50%.

Test in data set [3]: as above
The conditions noted are these: rat, in vivo; LD50 i.v. mice / ED50 p.o. rats; read-out: TQ LD50/ED50 (therapeutic quotient). The data set is classed as in vivo, rats (female). The procedure:
as §1, §3, §4, §2, §5, §6

The nature of data set [4]: Determination of toxicity (LD50, intravenous, mice). The note with it: mouse, in vivo; intravenous administration to mice; observation 7 days; dose at which 50% of the animals die. The method, then:
LD50 = dose at which 50% of the animals die
The toxicity investigations are carried out on female NMRI mice (body weight: 23 to 30 g). The animals (5 animals per dose) receive feed and water ad libitum. Various doses of the substances are administered intravenously (injection time: 1 minute). The observation period is 7 days. The LD50 (the dose at which 50% of the animals die) is determined by means of linear regression.

Turning to `CC1(C)[C@@H](OC(=O)CCC(=O)O)CC[C@]2(C)[C@H]3C(=O)C=C4[C@@H]5C[C@@](C)(C(=O)O)CC[C@]5(C)CC[C@@]4(C)[C@]3(C)CC[C@@H]12` [Serial No. 1, Carbenoxolone, reference compound], in data set [1], the “Gastric Secretion, % inhibition in rats” value was 7%. In data set [2], the median effective dose (ED50) worked out at 70 mg/kg. Moreover, in data set [2] (Shay rat, up to 300 mg/kg for compound 1), the “antiulcerogenic action, dose/action curve (in words)” value was “the dose/action curve is then very severely flattened so that no substantial increase in the antiulcerogenic action can be achieved even at 300 mg/kg”.

Turning to `CCN(CC)CC(=O)N1c2ccccc2NC(=O)c2c1c(C)cn2C` [Serial No. 5, 4-Diethylaminoacetyl-1,3-dimethyl-1,4,9,10-tetrahydropyrrolo[3,2-b][1,5]benzodiazepin-10-one], the “Gastric Secretion, % inhibition in rats” value in data set [1] is on record as 20%. Further, the ED50 in data set [2] came to 6 mg/kg. In data set [3], the therapeutic quotient (LD50/ED50) was 17.5. In data set [4], this compound came in with a median lethal dose (LD50) at 168 h of 105 mg/kg.

Regarding `Cc1cn(C)c2c1N(C(=O)CN(C)C)c1ccccc1NC2=O` [Serial No. 6, 1,3-Dimethyl-4-dimethylaminoacetyl-1,4,9,10-tetrahydropyrrolo[3,2-b][1,5]benzodiazepin-10-one], the “Gastric Secretion, % inhibition in rats” value in data set [1] was determined as 10%. Also, the ED50 in data set [2] (peroral administration to rats 1 hour before pylorus ligature, dose which reduces the ulcer index by 50% compared with the control group) came out at 6.5 mg/kg.

On to `CCCN(CCC)CC(=O)N1c2ccccc2NC(=O)c2c1c(C)cn2C` [Serial No. 7, 1,3-Dimethyl-4-di-(n-propyl)aminoacetyl-1,4,9,10-tetrahydropyrrolo[3,2-b][1,5]benzodiazepin-10-one], for which the “Gastric Secretion, % inhibition in rats” value in data set [1] was 10%. Besides, the median effective dose (ED50) in data set [2] was found to be 6.5 mg/kg. Also, the therapeutic quotient (LD50/ED50) in data set [3] was 16.9. In addition, the LD50 at 168 h in data set [4] turned out to be 110 mg/kg.

`Cc1cn(C)c2c1N(C(=O)CN1CCN(C)CC1)c1ccccc1NC2=O` [compound 2]: the “Gastric Secretion, % inhibition in rats” value in data set [1] was found to be 25%. For the same compound, the median effective dose (ED50) in data set [2] came to 1.4 mg/kg. The therapeutic quotient (LD50/ED50) in data set [3] was 71.4. In data set [4], this compound showed an LD50 at 168 h of 100 mg/kg.

As for `Cc1cn(C)c2c1N(C(=O)CN1CCCCC1)c1ccccc1NC2=O` [compound 3], in data set [1], the “Gastric Secretion, % inhibition in rats” value was found to be 3%. Also, the ED50 in data set [2] was determined as 4.5 mg/kg. Further, in data set [3], the therapeutic quotient (LD50/ED50) is 21.1. In addition, the LD50 at 168 h in data set [4] was 95 mg/kg.

In the case of `Cc1cn(C)c2c1N(C(=O)CN1CCCC1)c1ccccc1NC2=O` [compound 4], the “Gastric Secretion, % inhibition in rats” value in data set [1] worked out at 0%. Moreover, in data set [2], the 50% effective dose (ED50) amounted to 2.2 mg/kg. The therapeutic quotient (LD50/ED50) in data set [3] turned out to be 45.5. The LD50 at 168 h in data set [4] stood at 100 mg/kg.

As for `CCNCC(=O)N1c2ccccc2NC(=O)c2c1c(C)cn2C` [compound 8], the “Gastric Secretion, % inhibition in rats” value in data set [1] worked out at 20%. Also, in data set [2], the ED50 amounted to 5.5 mg/kg. Moreover, the therapeutic quotient (LD50/ED50) in data set [3] is 25.5. For the same compound, the LD50 at 168 h in data set [4] stood at 140 mg/kg.

Turning to `Cc1cn(C)c2c1N(C(=O)CCN1CCCC1)c1ccccc1NC2=O` [compound 9], the “Gastric Secretion, % inhibition in rats” value in data set [1] is reported as 25%. Moreover, in data set [2], the ED50 came out at 6 mg/kg. Besides, the therapeutic quotient (LD50/ED50) in data set [3] came to 11.7. Besides, the LD50 at 168 h in data set [4] turned out to be 70 mg/kg.

For `Cc1cn(C)c2c1N(C(=O)CCN(C)C)c1ccccc1NC2=O` [compound 10], the “Gastric Secretion, % inhibition in rats” value in data set [1] came to 21%. Besides, in data set [2], the ED50 is 4.5 mg/kg. Further, the therapeutic quotient (LD50/ED50) in data set [3] worked out at 26.7. This compound gave a median lethal dose (LD50) at 168 h in data set [4] of 120 mg/kg.
